Assay results taken from patent US20170152245A1 (National Taiwan University, priority 2015, published 2017).
Blank lines part the entries; values can stand above or below the molecule they belong to.

Assays:
[1] = test system: human platelet suspension; assay: Collagen-induced platelet aggregation in human platelet suspension; format: cell-based; details: collagen 10 μg/ml; for % inhibition collagen: human platelet suspension, preliminary, compound concentration not given
Procedure: (§1) Human platelet suspension (PS) was prepared according to the method described previously. Briefly, blood sample, freshly obtained from healthy volunteers who had taken no medications during the preceding 2 weeks, was treated with acid citrate/dextrose (ACD) in a volume ratio of 9:1. After centrifugation at 120 g, 25° C. for 9 min, platelet-rich plasma was transferred into another plastic tube and incubated with heparin (6.4 U/ml) as well as prostaglandin E1 (1 μM). Platelets were spun down by centrifugation at 500 g, 25° C. for 8 min and subsequently washed two times with Tyrode solution (NaH2PO4 0.4 mM; NaCl 136.9 mM; KCl […]; NaHCO3 11.9 mM; CaCl2 2 mM; MgCl2 2.1 mM; glucose 11.1 mM; BSA 3.5 mg/ml; pH 7.35-7.4). The washed platelets were finally suspended in Tyrode's solution and the platelet count was adjusted to 3.75×10^8 platelets/ml. For platelet-rich plasma (PRP) preparation, whole blood was anticoagulated with 1/10 vol of sodium citrate (3.8%, w/v) and centrifuged at 150 g, 25° C. for 9 min.
(§2) Platelet aggregation was measured turbidimetrically with a Lumi-aggregometer (Payton Scientific) at 37° C. under stirring condition (900 rpm). Platelet suspensions were prewarmed to 37° C. for 2 min in a silicone-treated glass cuvette. Nstpbp5185 was added 3 min before the addition of platelet-aggregation inducers. The extent of platelet aggregation was determined by recording the increase of light transmission relative to that of control (maximal aggregation, as 100%) for 6 min after the addition of inducer. The final volume and platelet count for measuring platelet aggregation were 500 μl and 3×10^8/ml, respectively.

[2] = test system: human platelet suspension; assay: ADP-induced platelet aggregation in human platelet suspension; format: cell-based; details: human platelet suspension; preliminary; compound concentration not given
Procedure: as §1, §2

[3] = test system: human platelet suspension; assay: U46619-induced platelet aggregation in human platelet suspension; format: cell-based
Procedure: as §1, §2

Thromboxane synthase = target: T1, Thromboxane synthase (Homo sapiens, UniProt P24557); details: cited from earlier work; for Thromboxane synthase: Table III arrows, reference drugs
T1 construct: MDS
T1 sequence (P24557 1-533): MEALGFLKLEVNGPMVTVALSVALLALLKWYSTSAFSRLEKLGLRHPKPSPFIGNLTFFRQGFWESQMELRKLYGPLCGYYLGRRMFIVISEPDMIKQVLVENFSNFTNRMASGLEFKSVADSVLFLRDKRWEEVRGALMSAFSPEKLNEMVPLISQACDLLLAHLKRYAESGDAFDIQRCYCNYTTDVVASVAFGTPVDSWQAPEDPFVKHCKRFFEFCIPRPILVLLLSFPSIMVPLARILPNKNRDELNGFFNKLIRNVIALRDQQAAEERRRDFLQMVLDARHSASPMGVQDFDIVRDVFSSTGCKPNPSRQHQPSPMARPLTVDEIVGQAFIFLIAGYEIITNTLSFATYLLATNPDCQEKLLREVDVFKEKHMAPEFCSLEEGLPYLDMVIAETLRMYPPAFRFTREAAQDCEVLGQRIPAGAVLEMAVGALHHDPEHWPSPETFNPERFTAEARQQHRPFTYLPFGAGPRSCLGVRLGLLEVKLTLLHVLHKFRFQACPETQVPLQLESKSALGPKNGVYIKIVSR

thromboxane receptor = target: T2, thromboxane receptor (Homo sapiens, UniProt P21731); details: cited from earlier work; for Thromboxane receptor: Table III arrows, reference drugs
T2 sequence (P21731 1-343): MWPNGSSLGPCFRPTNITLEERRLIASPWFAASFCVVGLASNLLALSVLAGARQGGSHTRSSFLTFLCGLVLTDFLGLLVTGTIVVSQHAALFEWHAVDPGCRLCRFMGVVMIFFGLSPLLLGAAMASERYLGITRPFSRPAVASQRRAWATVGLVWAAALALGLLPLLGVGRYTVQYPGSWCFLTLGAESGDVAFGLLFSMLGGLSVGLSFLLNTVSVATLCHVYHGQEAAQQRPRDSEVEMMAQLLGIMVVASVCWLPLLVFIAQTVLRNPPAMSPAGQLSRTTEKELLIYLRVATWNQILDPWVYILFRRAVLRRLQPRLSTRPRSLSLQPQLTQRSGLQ

PGI2 formation = details: Table III arrows, reference drugs; cited from earlier work
[4] = test system: human platelet suspension; assay: Arachidonic acid-induced platelet aggregation in human platelet suspension; format: cell-based; details: AA 200 μM
Procedure: as §1, §2

[5] = test system: human platelet-rich plasma; assay: Collagen-induced platelet aggregation in human platelet-rich plasma; format: cell-based; details: human PRP, data not shown, read-out: IC50 collagen-induced platelet aggregation in human PRP
Procedure: as §1, §2

[6] = test system: human platelet suspension; assay: Thromboxane B2 formation in human platelet suspension; format: cell-based; details: Homo sapiens, Platelet; collagen-activated platelets; 500 μM; read-out: inhibition of TXB2 formation
Procedure: Human platelet suspension (3.75×10^8/ml) was preincubated in the presence or absence of nstpbp5185 or aspirin for 3 min before the addition of collagen or AA. Six minutes after the addition of agonist, […] indomethacin and 2 mM EDTA were added to the reaction suspension. After centrifugation in an Eppendorf centrifuge at 14,000 g for 2 min, the thromboxane B2 (TXB2), the stable metabolite of TXA2, levels of the supernatant were measured using a competitive enzyme-immuno assay (EIA) kit according to the instructions of the manufacturer.

[7] = test system: mesenteric venules of mice; assay: Fluorescein sodium-induced platelet thrombus formation in mesenteric venules of mice; format: in vivo
Procedure: A modification of the method was used. Male ICR mice (12-14 g) were anesthetized with sodium pentobarbital (50 mg/kg, i.p.). […] Five min later, various doses of nstpbp5185 (2 and 4 μg/g), aspirin (150 and 250 μg/g), or DMSO (control) were administered by i.v. through other lateral tail vein. The injected volume of the nstpbp5185, aspirin, or DMSO (control) was smaller than 10 μl. A segment of the small intestine with its mesentery attached was exteriorized through a midline incision on the abdominal wall and placed onto a transparent plastic plate for microscopic observation. Frequent rinsing of the mesentery with warm isotonic saline kept at 37° C. was performed to prevent the mesentery from drying out. Microvessels in the mesentery were observed under transillumination from a halogen lamp. Venules with diameters of 30-40 μm were selected to be irradiated to produce a microthrombus. In the epi-illumination system, light from a 100-W mercury lamp was filtered through a filter (B-2A, Nikon, Tokyo, Japan) with a dichromic mirror (DM 510, Nikon). The filtered light eliminated wavelengths below 520 nm irradiated a microvessel through an objective lens (20×). The area of irradiation was about 100 μm in diameter on the focal plane. Ten minutes after administration of the dye, the irradiation by filtered light and a timer were simultaneously started, and thrombus formation was observed on a TV-monitor. Occlusion time was recorded as the time interval for inducing thrombus formation leading to cessation of blood flow.
After giving 50 μg/g fluorescein sodium, the irradiation of mesenteric venules induced thrombus formation which is consist of activated platelets and fibrin clots. […] In the vehicle-treated group, the average TTO was approximately 143.71±4.99 sec (n=17). The group pre-treated with compound 5185 (10 μg/g), the average TTO value was 208.67±6.99 sec (n=12).

rats = assay: Gastric damage in rats; format: in vivo; details: 150 μg g^−1 oral, 3 h
Procedure: Rats (Wistar) were fasted overnight then given aspirin at dose of 150 mg/kg or nstpbp5185 at 40 mg/kg. Both drugs were suspended in 1% carboxymethylcellulose. Three hours later, the rats were sacrificed, the stomach excised, and the extent of hemorrhagic erosions scored by an observer unaware of treatment the rats received. Each lesion larger than 2 mm was counted for comparison. The stomach was fixed in formalin (pH, 7.4) and photographed.

mice carotid artery = assay: FeCl3-induced thrombus formation in mice carotid artery; format: in vivo
Procedure: FIG. 14 The antithrombotic activity of nstpbp5185 in FeCl3-induced thrombi formation in mice carotid artery. (A) Mice were intravenously administered with Heparin (10 or 100 U kg^−1), Aspirin (40 or 80 μg g^−1), or different doses of nstpbp5185 (B). After 5 min, FeCl3 injury was induced by a filter paper saturated with ferric chloride solution (10%). After removal of the paper, carotid blood flow (ml min^−1) was monitored continuously until thromboembolism formation or for 60 min. (C) Mice were orally administered with different doses of Aspirin and nstpbp5185 (D). Both drugs were suspended in 1% CMC. Blood flow monitoring were recorded used analyzed Labchart software (AD instruments). Data are presented as the mean±SEM (n≧3). **P<0.01 and ***P<0.001 as compared with the vehicle control (DMSO).
Mice were intravenously or orally administered with different doses of nstpbp5185.

Cox-1,-2 = details: Table III arrows, reference drugs; cited from earlier work

SMILES: COc1cccc(Cn2c(-c3ccc(C)o3)nc3ccccc32)c1 [Example 6]
% inhibition collagen [1]: 19.1% | % inhibition ADF [2]: 41.4 (n = 2) %

IC50 ([3]; Homo sapiens, Platelet, U46619-induced aggregation, platelet suspension, read-out: P.S(U46619) IC50): 4.63 µM
SMILES: Cc1ccc(Cn2c(-c3ccc(C)o3)nc3ccccc32)cc1 [Example 9, 1-(p-Methylbenzyl)-2-(5-methyl-2-furyl)benzimidazole]
% inhibition collagen [1]: 1.1% | % inhibition ADF [2]: 17.4 (n = 3) %

SMILES: Cc1ccc2c(c1CCC(=O)O)CC[C@@H](NS(=O)(=O)c1ccc(Cl)cc1)C2 [Example S18886]
Thromboxane synthase (Thromboxane synthase): ↓ | Thromboxane receptor (thromboxane receptor): ↓

SMILES: O=C(O)CCCCO/N=C(/c1cccnc1)c1cccc(C(F)(F)F)c1 [Ridogrel]
Thromboxane synthase (Thromboxane synthase): ↓ | IC50 (Thromboxane synthase; reference drug): 0.001 µM | Thromboxane receptor (thromboxane receptor): ↓ | IC50 (thromboxane receptor; reference drug): 1 µM | PGI2 formation (PGI2 formation): ↑

IC50 ([1]; Platelet, washed human platelets, read-out: IC50 collagen-induced platelet aggregation in human PS): ~190 µM | IC50 [4]: 313 ± 18.7 µM | IC50 [5]: 5100 ± 700 µM
SMILES: CC(=O)Oc1ccccc1C(=O)O [aspirin, reference compound]
effect on U46619-induced platelet aggregation ([3]; 500 μM, data not shown): no effect | inhibition at 500 µM [6]: 96% | occlusion time ([7]; 250 μg g^−1 i.v.): 175.5 ± 25.3 s | occlusion time at return to control, within 60 min ([7]; 250 μg g^−1 i.v.): 82.6 ± 9.4 s | occlusion time within 40 min after administration ([7]; 250 μg g^−1 i.v.): 155.0 ± 7.1 s | time until occlusion time returned to the control value ([7]; 250 μg g^−1 i.v.): ≤ 60 min | change of occlusion time ([7]; low dose (below 250 μg g^−1)): did not significantly change | gastric lesions (>2 mm) (rats): marked lesions | time to FeCl3-induced occlusion (mice carotid artery; heparin 10 U kg^−1 or aspirin 40 μg g^−1 i.v.): about 10 min | FeCl3-induced thrombus formation (mice carotid artery; heparin 100 U kg^−1 or aspirin 80 μg g^−1 i.v.): blocked | Cox-1,-2 (Cox-1,-2): ↓ | PGI2 formation (PGI2 formation): ↓
